Here are results for six molecules from patent US20230028441A1, “NOVEL HETEROARYL-TRIAZOLE COMPOUNDS AS PESTICIDES” (Bayer Aktiengesellschaft, priority 2019, published 2023).

The term mortality denotes the share of the test organisms that died. A higher mortality goes with fewer survivors.

What all share (type): in vivo
The subject of test [1] is larvae of the banded cucumber beetle (Diabrotica balteata). The experiment in a line: Diabrotica balteata spray test. Particulars: 168 h, after 7 days, wheat seeds, read-out: efficacy (seedlings grown up); for pest or weed control at 32 µg/disc, 100 g/ha: 100 g/ha (=32 μg/well); for pest or weed control at 160 µg/disc, 500 g/ha: 500 g/ha (=160 μg/well). In a few lines: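 Germinated wheat seedlings (5 per well, agar plates) sprayed with compound in acetone/DMF diluted in water with 1000 ppm emulsifier, then infested with 10-20 larvae per unit. Efficacy scored after 7 days as % seedling growth relative to untreated, uninfested control (100% = normal growth, 0% = none).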

For test [2], the system named is adult unfed cat fleas (Ctenocephalides felis). The experiment in a line: Ctenocephalides felis oral test. Particulars: 48 h, 100 ppm in cattle blood, after 2 days. In a few lines: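 About 20 adult unfed Ctenocephalides felis fed through parafilm on cattle blood dosed with compound (DMSO stock diluted in blood), blood chamber at 37°C, fleas at room temperature. Mortality (%) scored after 2 days; 100% means all fleas killed.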

Test [3] has as its system adult cat fleas (Ctenocephalides felis). The experiment in a line: Ctenocephalides felis in-vitro contact test, adult cat flea. Particulars: 5 μg/cm^2 (=500 g/ha), after 48 hours, read-out: efficacy (fleas dead or moribund). The essentials:
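Acetone solutions were coated on glass tube walls, 900 ppm giving 5 μg/cm^2. After drying, 5-10 adult fleas per tube were held 48 h at room temperature. Fleas unable to climb away from a 45-50 °C heating plate within 5 min were scored dead or moribund, as % efficacy.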

Test [4] has as its system cattle ticks (Rhipicephalus microplus) strain Parkhurst, SP-resistant. The test can be described thus: Rhipicephalus (Boophilus) microplus dip test. Particulars: 100 ppm, egg deposition after 7 days. On the procedure:
Test animal: cattle ticks (Rhipicephalus microplus) strain Parkhurst, SP-resistant
Solvent: dimethyl sulfoxide
To produce a suitable preparation of active compound, 10 mg of active compound are dissolved in 0.5 mL solvent, and the concentrate is diluted with water to the desired concentration.
This compound solution is pipetted into tubes. 8-10 engorged, adult, female cattle ticks (Rhipicephalus microplus) are placed in perforated tubes. These tubes are immersed in the aqueous compound solution until the ticks are completely moistened. After the liquid has drained off, the ticks are transferred to a filter paper in a plastic tray and stored in a climate chamber.
After 7 days egg deposition of fertile eggs is monitored. Eggs where fertility is not visible are stored in a climate chamber till hatching after about 42 days. An efficacy of 100% means all eggs are infertile; 0% means all eggs are fertile.

Test [5] has as its system green peach aphid (Myzus persicae). The test can be described thus: Myzus persicae oral test. Particulars: 120 h. The essentials: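 Compound was dissolved at 1 part by weight in 100 parts acetone, then diluted with water to test concentration and combined with IPL41 insect medium (33%+15% sugar). A mixed aphid population fed on this through a parafilm seal, and mortality (%) was scored after 5 days.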

Test [6] concerns cattle tick larvae (Rhipicephalus microplus), strain Parkhurst, resistant against synthetic pyrethroids. The test can be described thus: Rhipicephalus (Boophilus) microplus in-vitro contact test, larval cattle tick. Particulars: 5 μg/cm^2 (=500 g/ha), after 48 hours, read-out: efficacy (larvae dead or moribund). The essentials: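 Acetone solutions of compound were coated on glass tube walls (900 ppm giving 5 μg/cm^2) and dried. 20–50 pyrethroid-resistant Parkhurst larvae were held per tube at 27° C and 85% relative humidity; after 48 h negative geotaxis scored efficacy as percent larvae dead or moribund.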

Test [7] concerns adult engorged female ticks (Rhipicephalus microplus). The test can be described thus: Rhipicephalus (Boophilus) microplus injection test. Particulars: 168 h, egg deposition after 7 days, read-out: efficacy (infertile eggs); for pest or weed control at 0.004 mg: 4 μg/animal; for pest or weed control at 0.02 mg: 20 μg/animal. The essentials:
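Compound was dissolved in DMSO at 10 mg per 0.5 mL and diluted with DMSO to the test concentration. Five engorged adult females received a 1 μL abdominal injection and were kept in a climate chamber. After 7 days, fertile egg deposition was scored, with unclear eggs held until hatching at about 42 days; 100% efficacy means all eggs were infertile.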

Test [8] has as its system two spotted spidermite (Tetranychus urticae). The test can be described thus: Tetranychus urticae spray test, OP-resistant. Particulars: foliar, 144 h, after 6 days, French bean leaf disks. As to the method:
Solvent: 78.0 parts by weight acetone • 1.5 parts by weight dimethylformamide
Emulsifier: alkylarylpolyglycol ether
To produce a suitable preparation of active compound, 1 part by weight of active compound is mixed with the stated amount of solvents and is diluted with water, containing an emulsifier concentration of 1000 ppm, to the desired concentration. Further test concentrations are prepared by dilution with emulsifier containing water.
French bean (Phaseolus vulgaris) leaf disks infected with all instars of the two spotted spidermite (Tetranychus urticae), are sprayed with a preparation of the active ingredient of the desired concentration.
After 6 days mortality in % is determined. 100% means all spider mites have been killed and 0% means none of the spider mites have been killed.

Test [9] concerns caterpillars of the fall army worm (Spodoptera frugiperda). The test can be described thus: Spodoptera frugiperda spray test (cotton leaves). Particulars: 168 h. The essentials: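 Cotton leaves sprayed with compound in water/DMF with 1000 ppm alkylaryl polyglycol ether emulsifier, ammonium salt and/or penetration enhancer at 1000 ppm added if necessary, then infested with fall armyworm caterpillars. Mortality in % scored after 7 days; 100% means all caterpillars killed.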

The subject of test [10] is fall armyworm larvae (Spodoptera frugiperda). The test can be described thus: Spodoptera frugiperda spray test (maize leaf sections). Particulars: 168 h. In a few lines:
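Maize leaf sections were sprayed with compound formulated in acetone/DMF and diluted in water containing 1000 ppm emulsifier. Once dry, sections were infested with fall armyworm larvae. Mortality (%) was scored after 7 days.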

The test system of test [11] is larvae of the southern green stink bug (Nezara viridula). The test can be described thus: Nezara viridula spray test. Particulars: in Hordeum vulgare, 96 h. The essentials:
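Barley plants infested with Nezara viridula larvae were sprayed with compound in acetone/dimethylformamide, diluted in water containing 1000 ppm alkylarylpolyglycol ether emulsifier. Mortality (%) was scored after 4 days; 100% means all stink bugs killed.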

Test [12] deals with adult brown dog ticks (Rhipicephalus sanguineus). The experiment in a line: Rhipicephalus sanguineus in-vitro contact test with adult brown dog ticks. Particulars: after 48 hours, read-out: efficacy (ticks dead or moribund); for pest or weed control at 1 µg/cm2, 100 g/ha: 1 μg/cm^2 (=100 g/ha); for pest or weed control at 5 µg/cm2, 500 g/ha: 5 μg/cm^2 (=500 g/ha). In a few lines: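 Compound in acetone coated onto glass tube inner walls at 900 ppm, giving 5 μg/cm^2. Adult ticks (5-10 per tube) held at room temperature for 48 h, then placed on a 45-50° C. heating plate for up to 5 min. Ticks unable to climb away counted dead or moribund; efficacy given as % dead/moribund.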

The subject of test [13] is green peach aphid (Myzus persicae). The experiment in a line: Myzus persicae spray test. Particulars: foliar, 120 h, 500 g/ha, after 5 days, Chinese cabbage leaf disks. The essentials:
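Chinese cabbage leaf disks carrying all instars of Myzus persicae were sprayed with compound. The formulation was acetone/dimethylformamide diluted in water with 1000 ppm alkylarylpolyglycol ether emulsifier. Percent mortality was scored after 5 days, with 100% meaning all aphids killed.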

For the molecule `CC(NC(=O)c1cc(Cl)cc(C(F)(F)F)c1)c1nc(N)nn1-c1ncccn1` (racemic) [I-004, N-[1-(5-amino-2-pyrimidin-2-yl-1,2,4-triazol-3-yl)ethyl]-3-chloro-5-(trifluoromethyl)benzamide], the pest or weed control at 32 µg/disc, 100 g/ha in [1] came to 100%. The same molecule came in with a mortality at 100 ppm in test [2] of 100%. The pest or weed control at 5 µg/cm2 in test [3] turned out to be 100%; in [6], 90%. For the same molecule, the “efficacy (infertile eggs)” value in test [4] is listed as 80%. For the same molecule, in test [5], the mortality at 4 ppm came out at 100%. Further, in [7], the pest or weed control at 0.004 mg was 100%.
For `CC(NC(=O)c1cc(Cl)cc(C(F)(F)F)c1)c1nc(NC(=O)CC(F)(F)F)nn1-c1ccc(Cl)cn1` (centres unmarked) [I-016], in test [1], the pest or weed control at 32 µg/disc, 100 g/ha turned out to be 100% and the pest or weed control at 160 µg/disc, 500 g/ha is 100%. The molecule also registered a mortality at 500 g/ha in [8] of 90%. Moreover, in test [2], the mortality at 100 ppm was determined as 100%. Besides, the mortality at 20 ppm in [9] is 100%. In addition, the pest or weed control at 5 µg/cm2 in test [6] came out at 100%. In addition, in test [7], the pest or weed control at 0.004 mg came out at 100% and the pest or weed control at 0.02 mg came to 100%. In test [10], this molecule came in with a mortality at 100 g/ha of 100% and a mortality at 500 g/ha of 100%.
For `CC(NC(=O)c1cc(C(F)(F)F)cc(C(F)(F)F)c1)c1nc(N(C)C(=O)OC(C)(C)C)nn1-c1ncccn1` (racemic) [I-009, tert-butyl N-[5-[1-[[3,5-bis(trifluoromethyl)benzoyl]amino]ethyl]-1-pyrimidin-2-yl-1,2,4-triazol-3-yl]-N-methyl-carbamate], the pest or weed control at 32 µg/disc, 100 g/ha in test [1] amounted to 100%. The molecule further yielded a mortality at 100 ppm in test [2] of 100%. Moreover, the pest or weed control at 5 µg/cm2 turned out to be 90% in test [3] and 100% in test [6]. For the same molecule, the mortality at 100 g/ha in [11] and in [10] was 100% each time. The “efficacy (infertile eggs)” value in test [4] was 80%. Further, the mortality at 4 ppm in [5] was determined as 100%. For the same molecule, the pest or weed control at 1 µg/cm2, 100 g/ha in test [12] is 80%. Moreover, in [12], the pest or weed control at 5 µg/cm2, 500 g/ha is 100%. In addition, the pest or weed control at 0.004 mg in test [7] came out at 100%.
Molecule `CC(NC(=O)c1cc(Cl)cc(C(F)(F)F)c1)c1nc(NC(=O)OC(C)(C)C)nn1-c1ccc(Cl)cn1` (centres unmarked) [I-003] gave a mortality at 500 g/ha in [8] of 90%. Further, in test [7], the pest or weed control at 0.004 mg amounted to 80% and the pest or weed control at 0.02 mg was determined as 100%.
With `CC(NC(=O)c1cc(Cl)cc(S(C)(=O)=O)c1)c1nc(NC(=O)C2(Cl)CC2)nn1-c1ccc(Cl)cn1` (centres unmarked) [I-012], in test [1], the pest or weed control at 32 µg/disc, 100 g/ha was determined as 100% and the pest or weed control at 160 µg/disc, 500 g/ha worked out at 100%. The same molecule returned a mortality at 500 g/ha in test [8] of 90%. In addition, in test [2], the mortality at 100 ppm was 100%. Moreover, the mortality at 20 ppm in [9] worked out at 100%. In test [11], the mortality at 100 g/ha turned out to be 100% and the mortality at 500 g/ha came out at 100%. The molecule further came in with a mortality at 500 g/ha in [13] of 90%. This molecule also registered a mortality at 4 ppm in test [5] of 100%. Further, the pest or weed control at 5 µg/cm2 in test [6] came to 100%. Further, in test [12], the pest or weed control at 1 µg/cm2, 100 g/ha came out at 100% and the pest or weed control at 5 µg/cm2, 500 g/ha came out at 100%. Also, in test [7], the pest or weed control at 0.004 mg stood at 100% and the pest or weed control at 0.02 mg turned out to be 100%. In test [10], this molecule had a mortality at 100 g/ha of 100% and a mortality at 500 g/ha of 100%.
`CC(NC(=O)c1cc(Cl)cc(S(C)(=O)=O)c1)c1nc(NC(=O)C2CC2)nn1-c1ccc(Cl)cn1` (centres unmarked) [I-013] yielded a mortality at 100 ppm in test [2] of 100%. Further, in [9], the mortality at 20 ppm was determined as 100%. Besides, in test [4], the “efficacy (infertile eggs)” value was determined as 80%. Moreover, the pest or weed control at 5 µg/cm2 in test [6] came to 90%. Moreover, in [7], the pest or weed control at 0.004 mg amounted to 100% and the pest or weed control at 0.02 mg was 100%.
